Assay results reported in patent US20140011799A1 (Bristol-Myers Squibb Company, priority 2012, published 2014).
pIC50: −log10 of the molar value.

What follows are compounds tested against T1, Endothelial lipase (EL) (Homo sapiens, UniProt Q9Y5X9) (assay: Endothelial lipase (EL) enzymatic assay, fluorescent substrate A10070 in DMPG vesicles). Details: EL from conditioned media of HT-1080 cells; compound preincubated 30 min at 37° C; read-out: EL IC50.
T1 construct: HT-1080 cells that were transformed using RAGE technology (Athersys) to overexpress endogenous EL; endogenous in cells; conditioned medium used
T1 sequence (Q9Y5X9 21-500): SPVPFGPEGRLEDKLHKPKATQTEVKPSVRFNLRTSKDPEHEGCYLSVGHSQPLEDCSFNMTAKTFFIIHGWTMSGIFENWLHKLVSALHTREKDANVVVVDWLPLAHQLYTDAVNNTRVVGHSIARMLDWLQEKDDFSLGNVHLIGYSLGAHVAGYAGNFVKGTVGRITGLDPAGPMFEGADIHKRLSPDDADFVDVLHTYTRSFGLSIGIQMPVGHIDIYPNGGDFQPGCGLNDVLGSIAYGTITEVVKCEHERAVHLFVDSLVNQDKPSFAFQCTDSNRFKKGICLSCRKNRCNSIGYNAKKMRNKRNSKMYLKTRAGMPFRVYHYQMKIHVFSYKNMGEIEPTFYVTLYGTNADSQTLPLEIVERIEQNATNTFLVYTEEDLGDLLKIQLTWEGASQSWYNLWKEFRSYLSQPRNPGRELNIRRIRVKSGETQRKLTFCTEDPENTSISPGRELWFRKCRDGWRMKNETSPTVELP
Type: biochemical
Method: Endothelial lipase (EL) and hepatic lipase (HL) activities were measured using a fluorescent substrate, A10070, (Invitrogen, CA) doped into an artificial vesicle containing DMPG (Avanti Polar Lipids) as the excipient. Vesicles were prepared by combining 571 μL of 29 mM DMPG in a 1:1 mixture of MeOH and CHCl3 with 2000 μL of 1 mM A10070 in a 1:1 mixture of MeOH and CHCl3. The mixture was dried under nitrogen in multiple vials then resuspended in 20 mL total volume of 50 mM HEPES pH 8.0 buffer containing 50 mM NaCl and 0.2 mM EDTA. The sample was allowed to sit at room temperature for 15 min and then was sonicated 3×4 mins on ice with a Branson Sonicator using duty cycle 1. This preparation provides vesicles with a mole fraction of 0.11 for the FRET substrate.
The enzymatic assay was measured using 384-well white Optiplates. Each well contained 20 μL of assay buffer (50 mM HEPES pH 8.0, 50 mM NaCl and 1 mM CaCl2) and 0.25 μL of a DMSO solution containing a compound of interest. EL or HL (10 μL) was added and allowed to incubate with the compound for 30 min at 37° C. The source of EL was conditioned media obtained from HT-1080 cells that were transformed using RAGE technology (Athersys) to overexpress endogenous EL, and HL was partially purified from conditioned media obtained from COS cells overexpressing HL. The reaction was started by the addition of 10 μL of a 1:10 dilution of vesicles. The final total reaction volume was […]. The reaction rates were measured on a Gemini plate reader with an excitation wavelength of 490 nm and an emission wavelength of 530 nm. Readings were taken over a period of 60 minutes, and the slope between 300 and 900 secs of the readout was used to calculate the rate of the reaction.
A pIC50 of 5.43 was found for `CC(c1nnc(CNS(N)(=O)=O)o1)(c1nc2ccc(-c3ccccc3)cc2s1)S(C)(=O)=O` (single isomer, unassigned) [Reference 1, Isomer A, N-((5-(1-(Methylsulfonyl)-1-(6-phenyl-1,3-benzothiazol-2-yl)ethyl)-1,3,4-oxadiazol-2-yl)methyl)sulfamide, reference compound] in this work.
A pIC50 of 5.28 was found for `CC(c1nnc(CNS(N)(=O)=O)o1)(c1nc2ccc(-c3ccccc3)cc2s1)S(C)(=O)=O` (single isomer, unassigned) [Reference 1, Isomer B, N-((5-(1-(Methylsulfonyl)-1-(6-phenyl-1,3-benzothiazol-2-yl)ethyl)-1,3,4-oxadiazol-2-yl)methyl)sulfamide, reference compound] in this work.
A pIC50 of over 8.00 was found for `CC1(Cc2nnc(C(c3nc4ccc(-c5ccc(F)nc5)cc4s3)S(=O)(=O)Cc3ccccc3)o2)SC(=O)NC1=O` (single isomer, unassigned; isomer a) [Example 1, 5-((5-((Benzylsulfonyl)(6-(6-fluoropyridin-3-yl)benzo[d]thiazol-2-yl)methyl)-1,3,4-oxadiazol-2-yl)methyl)-5-methylthiazolidine-2,4-dione (Isomer A)] in this work.
A pIC50 of 7.96 was found for `CC1(Cc2nnc(C(c3nc4ccc(-c5ccc(F)nc5)cc4s3)S(=O)(=O)Cc3ccccc3)o2)NC(=O)NC1=O` (single isomer, unassigned; isomer a) [Example 6, 5-((5-((benzylsulfonyl)(6-(6-fluoropyridin-3-yl)benzo[d]thiazol-2-yl)methyl)-1,3,4-oxadiazol-2-yl)methyl)-5-methylimidazolidine-2,4-dione (Isomer A)] in this work.
A pIC50 of 6.91 was found for `CC1(Cc2nnc(C(c3nc4ccc(-c5ccnc(F)c5)cc4s3)S(=O)(=O)Cc3ccccc3)o2)NC(=O)NC1=O` (single isomer, unassigned; isomer a) [Example 9, 5-((5-((benzylsulfonyl)(6-(2-fluoropyridin-4-yl)benzo[d]thiazol-2-yl)methyl)-1,3,4-oxadiazol-2-yl)methyl)-5-methylimidazolidine-2,4-dione (Isomer A)] in this work.
A pIC50 of over 8.00 was found for `CC1(Cc2nnc(C(c3nc4ccc(-c5ccnc(F)c5)cc4s3)S(C)(=O)=O)o2)NC(=O)NC1=O` (single isomer, unassigned; isomer a) [Example 13, 5-((5-((6-(2-fluoropyridin-4-yl)benzo[d]thiazol-2-yl)(methylsulfonyl)methyl)-1,3,4-oxadiazol-2-yl)methyl)-5-methylimidazolidine-2,4-dione (Isomer A)] in this work.
A pIC50 of 7.92 was found for `CC1(Cc2nnc(C(c3nc4ccc(-c5ccc(C(=O)N6CCOCC6)cc5)cc4s3)S(C)(=O)=O)o2)NC(=O)NC1=O` (single isomer, unassigned; isomer a) [Example 14, 5-methyl-5-((5-((methylsulfonyl)(6-(4-(morpholine-4-carbonyl)phenyl)benzo[d]thiazol-2-yl)methyl)-1,3,4-oxadiazol-2-yl)methyl)imidazolidine-2,4-dione (Isomer A)] in this work.
A pIC50 of over 8.00 was found for `CC1(Cc2nnc(C(c3nc4ccc(-c5ccc(F)nc5)cc4s3)S(C)(=O)=O)o2)SC(=O)NC1=O` (single isomer, unassigned; isomer a) [Example 17, 5-((5-((6-(6-fluoropyridin-3-yl)benzo[d]thiazol-2-yl)(methylsulfonyl)methyl)-1,3,4-oxadiazol-2-yl)methyl)-5-methylthiazolidine-2,4-dione (Isomer A)] in this work.
A pIC50 of 6.55 was found for `CC1(Cc2nnc(C(c3nc4ccc(-c5ccc(F)nc5)cc4s3)S(C)(=O)=O)o2)NC(=O)NC1=O` (single isomer, unassigned; isomer a) [Example 21, 5-((5-((6-(6-fluoropyridin-3-yl)benzo[d]thiazol-2-yl)(methylsulfonyl)methyl)-1,3,4-oxadiazol-2-yl)methyl)-5-methylimidazolidine-2,4-dione (Isomer A)] in this work.
A pIC50 of over 8.00 was found for `CC1(Cc2nnc(C(c3nc4ccc(-c5ccccc5)cc4s3)S(C)(=O)=O)o2)NC(=O)N(CC(F)(F)F)C1=O` (single isomer, unassigned; isomer a) [Example 27, 5-methyl-5-((5-(methylsulfonyl(6-phenylbenzo[d]thiazol-2-yl)methyl)-1,3,4-oxadiazol-2-yl)methyl)-3-(2,2,2-trifluoroethyl)imidazolidine-2,4-dione (Isomer A)] in this work.
A pIC50 of over 8.00 was found for `CC1(Cc2nnc(C(c3nc4ccc(-c5ccc(F)nc5)cc4s3)S(=O)(=O)Cc3ccccc3)o2)SC(=O)NC1=O` (single isomer, unassigned; isomer b) [Example 4, 5-((5-((benzylsulfonyl)(6-(6-fluoropyridin-3-yl)benzo[d]thiazol-2-yl)methyl)-1,3,4-oxadiazol-2-yl)methyl)-5-methylthiazolidine-2,4-dione (Isomer B)] in this work.
A pIC50 of 6.73 was found for `CC1(Cc2nnc(C(c3nc4ccc(-c5ccc(F)nc5)cc4s3)S(=O)(=O)Cc3ccccc3)o2)NC(=O)NC1=O` (single isomer, unassigned; isomer b) [Example 7, 5-((5-((benzylsulfonyl)(6-(6-fluoropyridin-3-yl)benzo[d]thiazol-2-yl)methyl)-1,3,4-oxadiazol-2-yl)methyl)-5-methylimidazolidine-2,4-dione (Isomer B)] in this work.
A pIC50 of 7.72 was found for `CC1(Cc2nnc(C(c3nc4ccc(-c5ccnc(F)c5)cc4s3)S(=O)(=O)Cc3ccccc3)o2)NC(=O)NC1=O` (single isomer, unassigned; isomer b) [Example 10, 5-((5-((benzylsulfonyl)(6-(2-fluoropyridin-4-yl)benzo[d]thiazol-2-yl)methyl)-1,3,4-oxadiazol-2-yl)methyl)-5-methylimidazolidine-2,4-dione (Isomer B)] in this work.
A pIC50 of 7.27 was found for `CC1(Cc2nnc(C(c3nc4ccc(-c5ccnc(F)c5)cc4s3)S(C)(=O)=O)o2)NC(=O)NC1=O` (single isomer, unassigned; isomer b) [Example 12, 5-((5-((6-(2-fluoropyridin-4-yl)benzo[d]thiazol-2-yl)(methylsulfonyl)methyl)-1,3,4-oxadiazol-2-yl)methyl)-5-methylimidazolidine-2,4-dione (Isomer B)] in this work.
A pIC50 of 7.19 was found for `CC1(Cc2nnc(C(c3nc4ccc(-c5ccc(C(=O)N6CCOCC6)cc5)cc4s3)S(C)(=O)=O)o2)NC(=O)NC1=O` (single isomer, unassigned; isomer b) [Example 15, 5-methyl-5-((5-((methylsulfonyl)(6-(4-(morpholine-4-carbonyl)phenyl)benzo[d]thiazol-2-yl)methyl)-1,3,4-oxadiazol-2-yl)methyl)imidazolidine-2,4-dione (Isomer B)] in this work.
A pIC50 of over 8.00 was found for `CC1(Cc2nnc(C(c3nc4ccc(-c5ccc(F)nc5)cc4s3)S(C)(=O)=O)o2)SC(=O)NC1=O` (single isomer, unassigned; isomer b) [Example 18, 5-((5-((6-(6-fluoropyridin-3-yl)benzo[d]thiazol-2-yl)(methylsulfonyl)methyl)-1,3,4-oxadiazol-2-yl)methyl)-5-methylthiazolidine-2,4-dione (Isomer B)] in this work.
A pIC50 of 7.57 was found for `CC1(Cc2nnc(C(c3nc4ccc(-c5ccc(F)nc5)cc4s3)S(C)(=O)=O)o2)NC(=O)NC1=O` (single isomer, unassigned; isomer b) [Example 22, 5-((5-((6-(6-fluoropyridin-3-yl)benzo[d]thiazol-2-yl)(methylsulfonyl)methyl)-1,3,4-oxadiazol-2-yl)methyl)-5-methylimidazolidine-2,4-dione (Isomer B)] in this work.
A pIC50 of over 8.00 was found for `CC1(Cc2nnc(Cc3nc4ccc(-c5ccccc5)cc4s3)o2)NC(=O)N(CC(F)(F)F)C1=O` (single isomer, unassigned; isomer b) [Example 26, 5-Methyl-5-((5-((6-phenylbenzo[d]thiazol-2-yl)methyl)-1,3,4-oxadiazol-2-yl)methyl)-3-(2,2,2-trifluoroethyl)imidazolidine-2,4-dione (Isomer B)] in this work.
A pIC50 of over 8.00 was found for `CS(=O)(=O)C(c1nnc(CC2SC(=O)NC2=O)o1)c1nc2ccc(-c3ccc(C(=O)N4CCOCC4)cc3)cc2s1` (stereo not shown) [Example 2, 5-((5-((methylsulfonyl)(6-(4-(4-morpholinylcarbonyl)phenyl)-1,3-benzothiazol-2-yl)methyl)-1,3,4-oxadiazol-2-yl)methyl)-1,3-thiazolidine-2,4-dione] in this work.
